Assay results as given in paper PMC9199882 (Clinical and Translational Science, 2022).
Read-outs that look alike come from different tables or passages of the source.

Assays:
[1] = Midazolam and 1-hydroxymidazolam plasma PK, DDI study stage 1
[2] = cited from earlier work
CYP3A = experiment: Effect of asciminib on CYP3A substrate midazolam; settings: for AUClast G mean ratio (90% CI) / Cmax G mean ratio (90% CI): midazolam + asciminib / midazolam
CYP2C8 = experiment: Effect of asciminib on CYP2C8 substrate repaglinide; settings: for AUClast G mean ratio (90% CI) / Cmax G mean ratio (90% CI): repaglinide + asciminib / repaglinide
[3] = patients with CML, 40 mg bid, ref Novartis, unpublished data, cited from earlier work
CYP2C9 = experiment: Effect of asciminib on CYP2C9 substrate warfarin
[4] = patients with CML, doses of up to 200 mg b.i.d.; cited from earlier work
[5] = midazolam 7.5 mg oral; cited from earlier work
blood glucose = experiment: Blood glucose concentration-time profile of repaglinide; type: in vivo, human; settings: blood glucose concentration–time profiles, 6 h post-dose, days 1 and 5
[6] = Repaglinide plasma PK, DDI study stage 2
[7] = for Cmax, adjusted G mean: linear mixed model
prothrombin time = experiment: Prothrombin pharmacodynamic analysis of warfarin; settings: warfarin + asciminib vs warfarin alone
[8] = warfarin 10 mg oral, cited from earlier work
[9] = ref Novartis, unpublished data, 9, 10
[10] = midazolam at asciminib steady-state vs midazolam alone
[11] = repaglinide in the presence of asciminib vs alone
[12] = warfarin 5 mg oral + asciminib 40 mg b.i.d. steady-state, day 11, plasma
[13] = warfarin 5 mg oral alone, day 1, plasma
[14] = warfarin + asciminib 40 mg b.i.d. steady-state
[15] = warfarin at asciminib steady-state vs warfarin alone

OCc1ncc2n1-c1ccc(Cl)cc1C(c1ccccc1F)=NC2 [1-hydroxymidazolam, 1‐hydroxymidazolam]
metabolite‐to‐parent ratio of G mean AUCinf ([1]; midazolam alone): 0.31 | metabolite‐to‐parent ratio of G mean AUClast ([1]; midazolam alone): 0.31 | metabolite‐to‐parent ratio of G mean AUCinf ([1]; midazolam with asciminib): 0.29 | metabolite‐to‐parent ratio of G mean AUClast ([1]; midazolam with asciminib): 0.27

O=C(Nc1ccc(OC(F)(F)Cl)cc1)c1cnc(N2CC[C@@H](O)C2)c(-c2ccn[nH]2)c1 [Asciminib, asciminib]
half‐life (T 1/2) [2]: 7 to 15 h | unchanged asciminib in urine [2]: 2.5% | unchanged asciminib share of drug‐related exposure in plasma [2]: > 90% | mean recovery from feces ([2]; disposition studies in humans): 80% | clearance pathway: direct glucuronidation by UGT ([2]; mainly UGT2B7, UGT2B17, UGT1A3/4, ref Novartis, unpublished data, 9, 10): 27.9% | clearance pathway: oxidation by CYP3A4 ([2]; part of the CYP oxidation, ref Novartis, unpublished data, 9, 10): 36% | median time to reach the maximum plasma concentration (Tmax) ([2]; post‐dose): 2 to 3 h | clearance pathway: biliary secretion by BCRP [2, 9]: 31.1% | clearance pathway: oxidation by cytochrome P450 enzymes [2, 9]: 37.8% | inhibitor classification, CYP3A (CYP3A; human, in vivo): weak inhibitor | effect on CYP2C8 (CYP2C8; asciminib 40 mg b.i.d.): no meaningful effect | Cmax at steady‐state, unbound asciminib [3]: 48 nM | Cmax ([3]; read-out: Cmax at steady‐state, total asciminib): 1770 nM | inhibitor classification, CYP2C9 (CYP2C9; asciminib 40 mg b.i.d.): weak inhibitor | maximum tolerated dose [4]: not reached

Cc1ncc2n1-c1ccc(Cl)cc1C(c1ccccc1F)=NC2 [Midazolam, midazolam]
AUClast G mean ratio (90% CI) (CYP3A): 1.27 | Cmax G mean ratio (90% CI) (CYP3A): 1.11 | AUClast G mean ratio (90% CI) (CYP3A; listed as midazolam): 1.27 (1.14, 1.41) | Cmax G mean ratio (90% CI) (CYP3A; listed as midazolam): 1.11 (0.96, 1.28) | increase in AUCinf (CYP3A; [10]): 28% | increase in AUClast (CYP3A; [10]): 27% | increase in Cmax (CYP3A; [10]): 11% | median Cmax [5]: 63.1 ng/mL | median T 1/2 [5]: 3.2 h | median Tmax [5]: 0.34 h | AUC(0-inf) ([1]; human, plasma, oral, AUCinf, adjusted G mean, midazolam alone, linear mixed model): 37.4 ng·h/mL | AUC(0-t) ([1]; human, plasma, oral, AUClast, adjusted G mean, midazolam alone, linear mixed model): 35.4 ng·h/mL | Cmax ([1]; human, plasma, oral, Cmax, adjusted G mean, midazolam alone, linear mixed model): 15.9 ng/mL | Tmax ([1]; human, plasma, po, 4 mg): 0.51 h | Vd/F ([1]; human, plasma, po, 4 mg): 413 L | CL/F, G mean (GCV%) ([1]; midazolam 4 mg oral + asciminib 40 mg b.i.d. steady-state, day 11): 83.0 (38.8) L/h | AUClast, G mean (GCV%) ([1]; midazolam 4 mg oral + asciminib 40 mg b.i.d. steady-state, day 11, plasma): 44.9 (38.1) ng × h/ml | CL/F, G mean (GCV%) ([1]; midazolam 4 mg oral alone, day 1): 107 (31.2) L/h

CCOc1cc(CC(=O)N[C@@H](CC(C)C)c2ccccc2N2CCCCC2)ccc1C(=O)O [Repaglinide, repaglinide]
AUClast G mean ratio (90% CI) (CYP2C8): 1.09 | Cmax G mean ratio (90% CI) (CYP2C8): 1.14 | AUClast G mean ratio (90% CI) (CYP2C8; listed as repaglinide): 1.09 (1.03, 1.15) | Cmax G mean ratio (90% CI) (CYP2C8; listed as repaglinide): 1.14 (1.01, 1.28) | increase in AUCinf (CYP2C8; [11]): 8% | increase in AUClast (CYP2C8; [11]): 9% | increase in Cmax (CYP2C8; [11]): 14% | glucose‐metabolizing activity alone or in combination with asciminib (blood glucose): no difference | Cmax ([6]; human, plasma, oral, 0.5 mg): 6.71 ng/mL | Cmax ([6]; human, plasma, po, 0.5 mg): 6.71 ng/mL | Tmax ([6]; human, plasma, po, 0.5 mg): 0.75 h | Vd/F ([6]; human, plasma, po, 0.5 mg): 162 L | CL/F, G mean (GCV%) ([6]; repaglinide 0.5 mg oral + asciminib 40 mg b.i.d. steady-state, day 5): 43.2 (38.2) L/h | T 1/2, G mean (GCV%) ([6]; repaglinide 0.5 mg oral + asciminib 40 mg b.i.d. steady-state, day 5, plasma): 2.09 (76.3) h | CL/F, G mean (GCV%) ([6]; repaglinide 0.5 mg oral alone, day 1): 46.3 (36.8) L/h | T 1/2, G mean (GCV%) ([6]; repaglinide 0.5 mg oral alone, day 1, plasma): 2.42 (46.2) h

CC(=O)C[C@H](c1ccccc1)c1c(O)c2ccccc2oc1=O [R‐Warfarin, R‐warfarin]
Cmax, G mean (GCV%) [7, 12]: 213 (20.4) ng/ml | Tmax, median (range) [7, 12]: 2.95 (0.94–11.7) h | Cmax, G mean (GCV%) [7, 13]: 196 (19.6) ng/ml | Tmax, median (range) [7, 13]: 2.01 (0.99–12.0) h | Tmax, median (range) ([7]; warfarin 5 mg oral alone, day 1, plasma, listed as R‐warfarin): 2.0 h | Cmax, adjusted G mean [7, 14]: 215 ng/mL | Cmax, adjusted G mean ([7]; warfarin alone): 196 ng/mL | increase in AUCinf (CYP2C9; [15]): 25% | increase in AUClast (CYP2C9; [15]): 24% | increase in Cmax (CYP2C9; [15]): 10%

CC(=O)C[C@@H](c1ccccc1)c1c(O)c2ccccc2oc1=O [S‐Warfarin, S‐warfarin]
Cmax, G mean (GCV%) [7, 12]: 225 (17.2) ng/ml | Tmax, median (range) [7, 12]: 2.00 (0.94–3.99) h | Cmax, G mean (GCV%) [7, 13]: 209 (18.6) ng/ml | Tmax, median (range) [7, 13]: 2.00 (0.99–4.00) h | Cmax, adjusted G mean [7, 14]: 227 ng/mL | Cmax, adjusted G mean ([7]; warfarin alone): 209 ng/mL | increase in AUClast (CYP2C9; [15]): 39% | increase in Cmax (CYP2C9; [15]): 9%

CC(=O)CC(c1ccccc1)c1c(O)c2ccccc2oc1=O (stereo not drawn) [Warfarin, warfarin]
anticoagulation activity on co‐administration with asciminib (prothrombin time): unaffected | Cmax ([8]; read-out: median Cmax): 1700 to 2000 nM | median Cmax ([8]; converted from μM): 500 to 600 ng/mL | median Tmax [8]: 2 h
